Assay results as given in patent US9908912B2, “Triclosan derivatives and uses thereof” (priority 2012, dated 2018).
Converted amounts (≈) assume the structure as drawn.

Tests used:
Strep. viridans OCC 234 = assay: MIC in Nutrient Broth No. 2; type: cell-based, Streptococcus viridans; details: Streptococcus viridans, OCC234; Nutrient Broth No. 2, 24 h, 37° C.; inducer not specified; read-out: MIC
Protocol: (§1) Bacteria species as indicated in Table 1 were incubated for approximately 24 hours at 37° C.
(§2) The tests were repeated with the addition of inducers. Methyl glycoside was the main inducer used, but other suitable inducers include isopropyl-β-D-thiogalactopyranoside, p-nitrophenyl-α-L-arabinopyranoside and p-nitrophenyl-β-D-xylopyranoside. Concentration of inducer in all cases was 100 μg/ml.

[1] = test system: Aeromonas hydrophila OCC 778; assay: MIC in Nutrient Broth No. 2; type: cell-based; details: Aeromonas hydrophila, OCC778; Nutrient Broth No. 2, 24 h, 37° C.; inducer not specified; read-out: MIC
Protocol: as §1, §2

[2] = test system: Bacillus subtilis NCTC 10073; assay: MIC in Nutrient Broth No. 2; type: cell-based; details: Bacillus subtilis, NCTC10073; Nutrient Broth No. 2, 24 h, 37° C.; inducer not specified; read-out: MIC
Protocol: as §1, §2

[3] = test system: Bacillus cereus ATCC 14579; assay: MIC in Nutrient Broth No. 2; type: cell-based; details: Bacillus cereus, ATCC14579; Nutrient Broth No. 2, 24 h, 37° C.; inducer not specified; read-out: MIC
Protocol: as §1, §2

[4] = test system: Citrobacter freundii OCC 851; assay: MIC in Nutrient Broth No. 2; type: cell-based; details: Citrobacter freundii, OCC851; Nutrient Broth No. 2, 24 h, 37° C.; inducer not specified; read-out: MIC
Protocol: as §1, §2

[5] = test system: Enterococcus faecium ATCC 19434; assay: MIC in Nutrient Broth No. 2; type: cell-based; details: Enterococcus faecium, ATCC19434; Nutrient Broth No. 2, 24 h, 37° C.; inducer not specified; read-out: MIC
Protocol: as §1, §2

[6] = test system: Enterococcus faecalis ATCC 29212; assay: MIC in Nutrient Broth No. 2; type: cell-based; details: Enterococcus faecalis, ATCC29212, 24 h
Protocol: as §1, §2

Proteus vulgaris OCC 195 = assay: MIC in Nutrient Broth No. 2; type: cell-based; details: Proteus vulgaris, OCC195; Nutrient Broth No. 2, 24 h, 37° C.; inducer not specified; read-out: MIC
Protocol: as §1, §2

Hafnia alvei ATCC 13337 = assay: MIC in Nutrient Broth No. 2; type: cell-based; details: Hafnia alvei, ATCC13337; Nutrient Broth No. 2, 24 h, 37° C.; inducer not specified; read-out: MIC
Protocol: as §1, §2

Escherichia coli = assay: MIC in Nutrient Broth No. 2; type: cell-based; details: Escherichia coli; 8 strains; Nutrient Broth No. 2, 24 h, 37° C.; inducer not specified; read-out: MIC
Protocol: as §1, §2

[7] = test system: Enterobacter aerogenes ATCC 13048; assay: MIC in Nutrient Broth No. 2; type: cell-based; details: Klebsiella aerogenes, ATCC13048; Nutrient Broth No. 2, 24 h, 37° C.; inducer not specified; read-out: MIC
Protocol: as §1, §2

[8] = test system: Proteus mirabilis ATCC 12453; assay: MIC in Nutrient Broth No. 2; type: cell-based; details: Proteus mirabilis, ATCC12453; Nutrient Broth No. 2, 24 h, 37° C.; inducer not specified; read-out: MIC
Protocol: as §1, §2

Salmonella = assay: MIC in Nutrient Broth No. 2; type: cell-based; details: Salmonella; 11 strains; Nutrient Broth No. 2, 24 h, 37° C.; inducer not specified; read-out: MIC
Protocol: as §1, §2

[9] = test system: Serratia marcescens OCC 217; assay: MIC in Nutrient Broth No. 2; type: cell-based; details: Serratia marcescens, OCC217; Nutrient Broth No. 2, 24 h, 37° C.; inducer not specified; read-out: MIC
Protocol: as §1, §2

[10] = test system: Ps. Aeruginosa ATCC 27853; assay: MIC in Nutrient Broth No. 2; type: cell-based; details: Pseudomonas aeruginosa, ATCC27853; Nutrient Broth No. 2, 24 h, 37° C.; inducer not specified; read-out: MIC
Protocol: as §1, §2

[11] = test system: Strep. pyogenes ATCC 19615; assay: MIC in Nutrient Broth No. 2; type: cell-based, Streptococcus pyogenes; details: Streptococcus pyogenes, ATCC19615; Nutrient Broth No. 2, 24 h, 37° C.; inducer not specified; read-out: MIC
Protocol: as §1, §2

Staph. aureus = assay: MIC in Nutrient Broth No. 2; type: cell-based, Staphylococcus aureus; details: Staphylococcus aureus; 8 strains; Nutrient Broth No. 2, 24 h, 37° C.; inducer not specified; read-out: MIC
Protocol: as §1, §2

[12] = test system: Strep. pneumoniae ATCC 6305; assay: MIC in Nutrient Broth No. 2; type: cell-based, Streptococcus pneumoniae; details: Streptococcus pneumoniae, ATCC6305; Nutrient Broth No. 2, 24 h, 37° C.; inducer not specified; read-out: MIC
Protocol: as §1, §2

[13] = test system: Staph. saprophyticus ATCC 15305; assay: MIC in Nutrient Broth No. 2; type: cell-based, Staphylococcus saprophyticus; details: Staphylococcus saprophyticus, ATCC15305; Nutrient Broth No. 2, 24 h, 37° C.; inducer not specified; read-out: MIC
Protocol: as §1, §2

[14] = test system: Strep. agalactiae OCC 182; assay: MIC in Nutrient Broth No. 2; type: cell-based, Streptococcus agalactiae; details: Streptococcus agalactiae, OCC182; Nutrient Broth No. 2, 24 h, 37° C.; inducer not specified; read-out: MIC
Protocol: as §1, §2

Staph. epidermidis = assay: MIC in Nutrient Broth No. 2; type: cell-based, Staphylococcus epidermidis; details: Staphylococcus epidermidis; 3 strains; Nutrient Broth No. 2, 24 h, 37° C.; inducer not specified; read-out: MIC
Protocol: as §1, §2

[15] = test system: Staph. haemolyticus OCC 2223; assay: MIC in Nutrient Broth No. 2; type: cell-based, Staphylococcus haemolyticus; details: Staphylococcus haemolyticus, OCC2223; Nutrient Broth No. 2, 24 h, 37° C.; inducer not specified; read-out: MIC
Protocol: as §1, §2

[16] = test system: Crono. sakazakii ATCC 29544; assay: MIC in Nutrient Broth No. 2; type: cell-based, Cronobacter sakazakii; details: Cronobacter sakazakii, ATCC29544; Nutrient Broth No. 2, 24 h, 37° C.; inducer not specified; read-out: MIC
Protocol: as §1, §2

E. hermanii ATCC 33650 = assay: MIC in Nutrient Broth No. 2; type: cell-based, Escherichia hermanii; details: Atlantibacter hermannii, ATCC33650; Nutrient Broth No. 2, 24 h, 37° C.; inducer not specified; read-out: MIC
Protocol: as §1, §2

[17] = test system: Kleb. aerogenes NCTC 88167; assay: MIC in Nutrient Broth No. 2; type: cell-based, Klebsiella aerogenes; details: Klebsiella aerogenes, NCTC88167; Nutrient Broth No. 2, 24 h, 37° C.; inducer not specified; read-out: MIC
Protocol: as §1, §2

[18] = test system: Bacteria species as indicated in Table 1; assay: MIC in Nutrient Broth No. 2 (over organisms of Table 1); type: cell-based; details: Table 1 organisms
Protocol: as §1, §2

[19] = test system: Kleb. pneumoniae ATCC 10031; assay: MIC in Nutrient Broth No. 2; type: cell-based, Klebsiella pneumoniae; details: Klebsiella pneumoniae, ATCC10031; Nutrient Broth No. 2, 24 h, 37° C.; inducer not specified; read-out: MIC
Protocol: as §1, §2

Ent. cloacae ATCC 13047 = assay: MIC in Nutrient Broth No. 2; type: cell-based, Enterobacter cloacae; details: Enterobacter cloacae, ATCC13047; Nutrient Broth No. 2, 24 h, 37° C.; inducer not specified; read-out: MIC
Protocol: as §1, §2

Oc1cc(Cl)ccc1Oc1ccc(Cl)cc1Cl [Triclosan, 5-chloro-2-(2,4-dichlorophenoxy)phenol]
MIC (Strep. viridans OCC 234): 4 µg/mL (≈ 13.8 µM) | MIC [1]: 8 µg/mL (≈ 27.6 µM) | MIC [2]: 1 µg/mL (≈ 3.45 µM) | MIC [3]: 2 µg/mL (≈ 6.91 µM) | MIC [4]: 0.5 µg/mL (≈ 1.73 µM) | MIC [5]: 4 µg/mL (≈ 13.8 µM) | MIC [6]: 8 µg/mL (≈ 27.6 µM) | MIC (Proteus vulgaris OCC 195): 0.5 µg/mL (≈ 1.73 µM) | MIC (Hafnia alvei ATCC 13337): 0.1 µg/mL (≈ 0.345 µM) | MIC (Escherichia coli): 0.1 to 0.5 µg/mL (≈ 0.345 to 1.73 µM) | MIC [7]: 0.5 µg/mL (≈ 1.73 µM) | MIC [8]: 0.5 µg/mL (≈ 1.73 µM) | MIC (Salmonella): 0.5 to 1 µg/mL (≈ 1.73 to 3.45 µM) | MIC [9]: 64 µg/mL (≈ 221 µM) | MIC [10]: 32 µg/mL (≈ 111 µM) | MIC [11]: 1 µg/mL (≈ 3.45 µM) | MIC (Staph. aureus): 0.01 µg/mL (≈ 0.0345 µM) | MIC [12]: 1 µg/mL (≈ 3.45 µM) | MIC [13]: 0.01 µg/mL (≈ 0.0345 µM) | MIC [14]: 4 µg/mL (≈ 13.8 µM) | MIC (Staph. epidermidis): 0.01 µg/mL (≈ 0.0345 µM) | MIC [15]: 0.01 µg/mL (≈ 0.0345 µM) | MIC [16]: 0.5 µg/mL (≈ 1.73 µM) | MIC (E. hermanii ATCC 33650): 0.5 µg/mL (≈ 1.73 µM) | MIC [17]: 0.5 µg/mL (≈ 1.73 µM) | susceptibility of the organisms that were tested [18]: inhibited | MIC [19]: 0.1 µg/mL (≈ 0.345 µM) | MIC (Ent. cloacae ATCC 13047): 0.5 µg/mL (≈ 1.73 µM)
